Experimental data from PubChem BioAssay (NCI).
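Step 1: Grow cells in 96-well plates. Step 2: Expose to compound for 48 hours at 5 concentrations. Step 3: Interpolate endpoints linearly; if unreached, use highest concentration. The concentration for 50% growth inhibition is given as GI50. TGI: concentration producing complete growth inhibition.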

Columns and labels:
Assay in all cases: growth of human tumour cells (NCI), 48 h
[1] = tested on: COLO 205 colon
[2] = tested on: SNB-75 CNS
[3] = tested on: HCT-15 colon
[4] = tested on: RPMI-8226 leukemia
[5] = tested on: SF-539 CNS
[6] = tested on: CAKI-1 renal
[7] = tested on: SF-268 CNS
[8] = tested on: IGROV1 ovarian
[9] = tested on: NCI-H460 lung
[10] = tested on: TK-10 renal
[11] = tested on: MALME-3M melanoma
[12] = tested on: MCF7 breast
[13] = tested on: NCI-H522 lung
[14] = tested on: NCI/ADR-RES ovarian
[15] = tested on: RXF 393 renal
[16] = tested on: UACC-62 melanoma
[17] = tested on: HT29 colon
[18] = tested on: NCI-H23 lung
[19] = tested on: SW-620 colon
[20] = tested on: OVCAR-3 ovarian
[21] = tested on: MDA-MB-231 breast
[22] = tested on: UO-31 renal
[23] = tested on: SK-OV-3 ovarian
[24] = tested on: A498 renal
[25] = tested on: HOP-62 NSCLC
[26] = tested on: U251 CNS
[27] = tested on: SF-295 CNS
[28] = tested on: OVCAR-8 ovarian
[29] = tested on: LOX IMVI melanoma
[30] = tested on: SK-MEL-2 melanoma
[31] = tested on: SK-MEL-28 melanoma
[32] = tested on: UACC-257 melanoma
[33] = tested on: HS 578T breast
[34] = tested on: SN12C renal
[35] = tested on: OVCAR-4 ovarian
[36] = tested on: M14 melanoma
[37] = tested on: NCI-H226 lung
[38] = tested on: KM12 colon
[39] = tested on: ACHN renal
[40] = tested on: BT-549 breast
[41] = tested on: SK-MEL-5 melanoma
[42] = tested on: OVCAR-5 ovarian
[43] = tested on: MDA-MB-435
[44] = tested on: EKVX NSCLC
[45] = tested on: PC-3 prostate

C#CC[C@@H]1C[C@]2(C)[C@H]3CC[C@@H]4[C@H]5C(C(=C)C)CC[C@]5(C(=O)NCCCCN)CC[C@@]4(C)[C@]3(C)CC[C@H]2C(C)(C)[C@H]1OC(C)=O (stereo not given in full)
GI50 [1]: 1.68 µM | TGI [1]: 3.3 µM | GI50 [2]: 1.41 µM | TGI [2]: 2.78 µM | GI50 [3]: 1.73 µM | TGI [3]: 3.45 µM | GI50 [4]: 2.1 µM | TGI [4]: 5.06 µM | GI50 [5]: 1.66 µM | TGI [5]: 3.11 µM | GI50 [6]: 1.6 µM | TGI [6]: 3.07 µM | GI50 [7]: 1.85 µM | TGI [7]: 3.93 µM | GI50 [8]: 1.73 µM | TGI [8]: 3.35 µM | GI50 [9]: 1.91 µM | TGI [9]: 3.71 µM | GI50 [10]: 1.86 µM | TGI [10]: 3.48 µM | GI50 [11]: 1.68 µM | TGI [11]: 3.33 µM | GI50 [12]: 1.67 µM | TGI [12]: 3.86 µM | GI50 [13]: 1.8 µM | TGI [13]: 3.67 µM | GI50 [14]: 1.82 µM | TGI [14]: 3.98 µM | GI50 [15]: 1.55 µM | TGI [15]: 3.14 µM | GI50 [16]: 1.82 µM | TGI [16]: 3.26 µM | GI50 [17]: 1.9 µM | TGI [17]: 4.04 µM | GI50 [18]: 1.85 µM | TGI [18]: 3.53 µM | GI50 [19]: 1.83 µM | TGI [19]: 3.74 µM | GI50 [20]: 1.78 µM | TGI [20]: 3.33 µM | GI50 [21]: 1.79 µM | TGI [21]: 3.45 µM | GI50 [22]: 1.56 µM | TGI [22]: 2.95 µM | GI50 [23]: 1.94 µM | TGI [23]: 3.54 µM | GI50 [24]: 1.78 µM | TGI [24]: 3.19 µM | GI50 [25]: 1.91 µM | TGI [25]: 4.07 µM | GI50 [26]: 1.81 µM | TGI [26]: 3.51 µM | GI50 [27]: 1.84 µM | TGI [27]: 3.41 µM | GI50 [28]: 2.21 µM | TGI [28]: 5.34 µM | GI50 [29]: 1.56 µM | TGI [29]: 3 µM | GI50 [30]: 1.71 µM | TGI [30]: 3.4 µM | GI50 [31]: 1.76 µM | TGI [31]: 3.25 µM | GI50 [32]: 1.89 µM | TGI [32]: 3.77 µM | GI50 [33]: 1.82 µM | TGI [33]: 3.81 µM | GI50 [34]: 1.73 µM | TGI [34]: 3.34 µM | GI50 [35]: 1.76 µM | TGI [35]: 3.33 µM | GI50 [36]: 1.77 µM | TGI [36]: 3.46 µM | GI50 [37]: 2.03 µM | TGI [37]: 4.84 µM | GI50 [38]: 1.81 µM | TGI [38]: 3.36 µM | GI50 [39]: 1.65 µM | TGI [39]: 3.01 µM | GI50 [40]: 1.76 µM | TGI [40]: 3.34 µM | GI50 [41]: 1.8 µM | TGI [41]: 3.27 µM | GI50 [42]: 1.67 µM | TGI [42]: 3.06 µM | GI50 [43]: 1.73 µM | TGI [43]: 3.19 µM | GI50 [44]: 1.84 µM | TGI [44]: 3.78 µM | GI50 [45]: 1.64 µM | TGI [45]: 3.17 µM
